Drawing on ChEMBL document CHEMBL3758127, “Improving selectivity of dopamine D3 receptor ligands” (Bioorg Med Chem Lett, 2016), this text covers Ki, Ratio Ki and inhibition for 22 compounds.

For one data set, the target named is D(2) dopamine receptor (Homo sapiens, UniProt P14416). In words: Displacement of [3H]-spiperone from human dopamine D2S receptor expressed in HEK293 cell membranes.
The target in another data set is D(3) dopamine receptor (Homo sapiens, UniProt P35462). In words: Displacement of [3H]-spiperone from human dopamine D3 receptor expressed in CHO cell membranes.
Data set [1] has as its target T1, Alpha-1A adrenergic receptor (Homo sapiens, UniProt P35348).
T1 sequence (P35348 whole entry): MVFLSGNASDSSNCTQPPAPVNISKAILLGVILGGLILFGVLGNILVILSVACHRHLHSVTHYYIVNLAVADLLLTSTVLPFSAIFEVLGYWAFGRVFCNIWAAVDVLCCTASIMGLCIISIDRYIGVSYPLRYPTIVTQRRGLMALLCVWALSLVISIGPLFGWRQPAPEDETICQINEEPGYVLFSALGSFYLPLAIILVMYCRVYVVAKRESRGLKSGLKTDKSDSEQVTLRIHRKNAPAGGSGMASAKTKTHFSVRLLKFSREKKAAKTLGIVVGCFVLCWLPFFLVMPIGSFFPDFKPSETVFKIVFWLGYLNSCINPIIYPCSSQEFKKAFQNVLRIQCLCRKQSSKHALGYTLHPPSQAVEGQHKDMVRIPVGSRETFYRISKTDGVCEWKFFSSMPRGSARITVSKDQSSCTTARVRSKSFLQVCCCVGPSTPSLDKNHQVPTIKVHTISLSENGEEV
In words: Displacement of [3H]-prazosin from human ADRA1A receptor.

Data set [2] is filed under the species Homo sapiens. Description: Selectivity ratio of Ki for human dopamine D2S receptor to Ki for human dopamine D3 receptor.
For data set [3], the species on record is Homo sapiens. In words: Selectivity ratio of Ki for human ADRA1A receptor to Ki for human dopamine D3 receptor.
A further data set addresses hERG (KCNH2) (Homo sapiens, UniProt Q12809). In words: Inhibition of dofetilide binding to human ERG at 1 uM. As to conditions: probe dofetilide; call rule not given here.

Sequence of hERG (KCNH2) (Q12809 whole entry): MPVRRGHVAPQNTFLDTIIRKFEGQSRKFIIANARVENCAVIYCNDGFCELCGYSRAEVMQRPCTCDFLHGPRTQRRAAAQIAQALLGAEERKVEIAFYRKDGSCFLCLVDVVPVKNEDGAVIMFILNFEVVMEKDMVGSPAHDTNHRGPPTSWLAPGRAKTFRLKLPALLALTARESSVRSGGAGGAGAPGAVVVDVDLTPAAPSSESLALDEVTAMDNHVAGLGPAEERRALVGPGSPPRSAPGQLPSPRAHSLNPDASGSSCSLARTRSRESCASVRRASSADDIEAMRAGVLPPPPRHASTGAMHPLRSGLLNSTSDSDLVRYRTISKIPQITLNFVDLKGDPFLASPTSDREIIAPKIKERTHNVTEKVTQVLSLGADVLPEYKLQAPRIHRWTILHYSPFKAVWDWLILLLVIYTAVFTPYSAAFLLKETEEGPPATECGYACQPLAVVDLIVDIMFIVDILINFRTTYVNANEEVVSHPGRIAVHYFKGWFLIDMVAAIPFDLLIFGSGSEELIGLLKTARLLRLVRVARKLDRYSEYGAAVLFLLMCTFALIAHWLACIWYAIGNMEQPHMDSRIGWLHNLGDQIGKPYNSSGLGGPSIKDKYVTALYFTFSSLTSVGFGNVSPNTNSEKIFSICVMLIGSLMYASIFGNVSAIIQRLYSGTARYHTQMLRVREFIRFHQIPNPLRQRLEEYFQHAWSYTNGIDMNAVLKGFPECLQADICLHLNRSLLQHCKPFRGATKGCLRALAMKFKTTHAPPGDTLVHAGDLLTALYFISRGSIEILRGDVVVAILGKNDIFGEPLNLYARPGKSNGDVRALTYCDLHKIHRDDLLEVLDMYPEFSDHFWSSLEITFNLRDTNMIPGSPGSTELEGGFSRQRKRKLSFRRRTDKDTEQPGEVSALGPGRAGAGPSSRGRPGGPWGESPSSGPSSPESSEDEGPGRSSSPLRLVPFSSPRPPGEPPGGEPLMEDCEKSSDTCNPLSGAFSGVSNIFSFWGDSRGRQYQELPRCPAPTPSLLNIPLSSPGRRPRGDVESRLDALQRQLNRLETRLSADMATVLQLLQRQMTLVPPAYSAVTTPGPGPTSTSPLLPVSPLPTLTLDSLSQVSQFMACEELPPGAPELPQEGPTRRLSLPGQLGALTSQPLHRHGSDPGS
Sequence of D(3) dopamine receptor (P35462 whole entry): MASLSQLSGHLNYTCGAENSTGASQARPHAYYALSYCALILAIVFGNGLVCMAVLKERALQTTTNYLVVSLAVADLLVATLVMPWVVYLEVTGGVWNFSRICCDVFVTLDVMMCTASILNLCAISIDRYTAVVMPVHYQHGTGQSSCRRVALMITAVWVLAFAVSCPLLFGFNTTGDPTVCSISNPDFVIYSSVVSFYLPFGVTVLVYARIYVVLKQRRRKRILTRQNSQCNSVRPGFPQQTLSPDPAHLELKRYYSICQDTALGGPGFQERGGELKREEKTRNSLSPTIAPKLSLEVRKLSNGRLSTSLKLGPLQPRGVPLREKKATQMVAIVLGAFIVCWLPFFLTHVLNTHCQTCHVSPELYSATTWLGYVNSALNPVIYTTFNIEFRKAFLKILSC
Sequence of D(2) dopamine receptor (P14416 whole entry): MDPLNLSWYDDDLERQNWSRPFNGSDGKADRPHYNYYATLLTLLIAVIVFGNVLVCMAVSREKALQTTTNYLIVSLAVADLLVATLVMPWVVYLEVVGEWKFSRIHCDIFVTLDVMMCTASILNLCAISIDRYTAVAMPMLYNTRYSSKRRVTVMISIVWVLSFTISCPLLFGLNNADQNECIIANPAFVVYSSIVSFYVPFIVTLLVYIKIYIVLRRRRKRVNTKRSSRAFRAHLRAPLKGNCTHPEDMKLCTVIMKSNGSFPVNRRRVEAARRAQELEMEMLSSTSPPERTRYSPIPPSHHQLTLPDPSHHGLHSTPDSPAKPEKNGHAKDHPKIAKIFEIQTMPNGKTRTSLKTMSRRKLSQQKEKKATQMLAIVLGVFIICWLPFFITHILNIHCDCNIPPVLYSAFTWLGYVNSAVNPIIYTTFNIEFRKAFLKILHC

With `O=C(NCCCCN1CCN(c2ccc(Cl)cc2)CC1)c1ccc2ccccc2c1`, the results for the inhibition constant Ki (at D(2) dopamine receptor (read-out: Ki); on D(3) dopamine receptor; in data set [1]) were 12100 nM, 10.4 nM and 166 nM, respectively. Moreover, the Ratio Ki in the data set listed under Homo sapiens [2] turned out to be 1170; in the data set listed under Homo sapiens [3], 16.
As for `Cc1cccc(N2CCN(CCCCNC(=O)c3ccc4ccccc4c3)CC2)c1C`, the inhibition constant Ki at D(2) dopamine receptor (read-out: Ki) came to 302 nM; on D(3) dopamine receptor it was 1.33 nM; in data set [1], 230 nM. Further, the Ratio Ki is 230 in the data set listed under Homo sapiens [2] and 170 in the data set listed under Homo sapiens [3].
The like results for `COc1ccccc1N1CCN(CCCCNC(=O)Nc2cccc(Cl)c2)CC1` were, in that order, 13 nM, 1.3 nM, 5 nM, 10 and 4.
Consider `CS(=O)(=O)Nc1cccc(N2CCN(CCCCNC(=O)c3ccc4ccccc4c3)CC2)c1`, for which the results for the inhibitory constant (Ki) (at D(2) dopamine receptor (read-out: Ki); on D(3) dopamine receptor; in data set [1]) were 55 nM, 1.6 nM and 160 nM, respectively. The Ratio Ki in the data set listed under Homo sapiens [2] came to 34; in the data set filed under Homo sapiens [3] it was 100.
Taken in the same sequence, the figures for `O=C(NCCCCN1CCN(c2ccccc2F)CC1)c1ccc2ccccc2c1` were 310 nM, 1.23 nM, 38.5 nM, 250 and 31.
With `COc1ccccc1N1CCN(CCCCCOc2ccc3ccccc3c2)CC1`, the values for the inhibition constant Ki (at D(2) dopamine receptor (read-out: Ki); at D(3) dopamine receptor; in data set [1]) were 34 nM, 87 nM and 10.3 nM, respectively. For the same compound, the Ratio Ki in the data set listed under Homo sapiens [2] worked out at 0.4; in the data set listed under Homo sapiens [3], 0.1.
With `O=C(NCCCCN1CCN(c2cccc(C(F)(F)F)c2)CC1)c1ccc2ccccc2c1`, the Ki at D(2) dopamine receptor (read-out: Ki) stood at 1550 nM; on D(3) dopamine receptor it was 1.1 nM; in data set [1], 283 nM. In addition, the figures for the Ratio Ki in the data set listed under Homo sapiens [2] and in the data set filed under Homo sapiens [3] were 1400 and 260, respectively. Also, the inhibition at 1 µM on hERG (KCNH2) worked out at 51%.
Take `COc1ccccc1N1CCN(CCCCNC(=O)CC2CCCCC2)CC1`: the Ki at D(2) dopamine receptor (read-out: Ki) came to 322 nM; at D(3) dopamine receptor it was 2 nM; in data set [1] it was 65.5 nM. Besides, the Ratio Ki in the data set filed under Homo sapiens [2] stood at 161; in the data set listed under Homo sapiens [3] it was 33.
Taken in the same sequence, the figures for `Cc1ccccc1N1CCN(CCCCNC(=O)c2ccc3ccccc3c2)CC1` were 404 nM, 0.73 nM, 29.9 nM, 550 and 41.
The like results for `O=C(NCCCCN1CCN(c2cccc3[nH]ccc23)CC1)c1ccc2ccccc2c1` were, in that order, 95 nM, 1.3 nM, 19 nM, 73 and 15.
With `COc1ccccc1N1CCN(CCCCNC(=O)CC(C)C)CC1`, the inhibition constant (Ki) result is “Not Active” at D(2) dopamine receptor (hek293), 123 nM on D(3) dopamine receptor and 418 nM in data set [1]. Also, the Ratio Ki in the data set listed under Homo sapiens [3] amounted to 3.
For the compound `COc1ccccc1N1CCN(CCCCNC(=O)C2CCCCC2)CC1`, the values for the Ki (on D(2) dopamine receptor (read-out: Ki); at D(3) dopamine receptor; in data set [1]) were 168 nM, 0.9 nM and 963 nM, respectively. The results for the Ratio Ki in the data set listed under Homo sapiens [2] and in the data set listed under Homo sapiens [3] were 190 and 1070, respectively. Moreover, at hERG (KCNH2), the inhibition at 1 µM came out at 82%.
On to `COc1ccccc1N1CCN(CCCCNC(=O)N(C)c2ccccc2)CC1`, for which the Ki at D(2) dopamine receptor (read-out: Ki) was found to be 1550 nM; on D(3) dopamine receptor, 12 nM; in data set [1], 116 nM. Further, the Ratio Ki in the data set listed under Homo sapiens [2] amounted to 130; in the data set listed under Homo sapiens [3], 10.
Taken in the same sequence, the figures for `COc1ccccc1N1CCN(CCCCNC(=O)N2CCOCC2)CC1` were 482 nM, 1.8 nM, 81 nM, 270 and 45.
As to `O=C(NCCCCN1CCN(c2cccc(O)c2)CC1)c1ccc2ccccc2c1`, the Ki is 373 nM at D(2) dopamine receptor (read-out: Ki), 0.2 nM on D(3) dopamine receptor and 1520 nM in data set [1]. Also, the Ratio Ki in the data set listed under Homo sapiens [2] worked out at 1900; in the data set filed under Homo sapiens [3], 7600. On hERG (KCNH2), the inhibition at 1 µM was found to be 30%.
As for `O=C(NCCCCN1CCN(c2cccc(Cl)c2Cl)CC1)c1ccc2ccccc2c1`, the Ki at D(3) dopamine receptor was 1.08 nM; in data set [1] it was 104 nM.
As to `O=C(NCCCCN1CCN(c2cccc(Cl)c2)CC1)c1ccc2ccccc2c1`, the inhibition constant Ki on D(2) dopamine receptor (read-out: Ki) worked out at 3320 nM; at D(3) dopamine receptor it was 4.7 nM; in data set [1], 50.2 nM. For the same compound, the Ratio Ki in the data set filed under Homo sapiens [2] came to 700; in the data set listed under Homo sapiens [3], 11.
Regarding `O=C(NCCCCN1CCN(c2ccccc2Cl)CC1)c1ccc2ccccc2c1`, the figures for the Ki (on D(2) dopamine receptor (read-out: Ki); at D(3) dopamine receptor; in data set [1]) were 238 nM, 0.7 nM and 29.9 nM, respectively. For the same compound, the Ratio Ki in the data set listed under Homo sapiens [2] came to 340; in the data set filed under Homo sapiens [3], 43.
Taken in the same sequence, the figures for `O=C(NCCCCN1CCN(c2cccc3[nH]c(=O)[nH]c23)CC1)c1ccc2ccccc2c1` were 131 nM, 3.5 nM, 158 nM, 37 and 45.
Taken in the same sequence, the figures for `O=C(NCCCCN1CCN(c2ccccc2O)CC1)c1ccc2ccccc2c1` were 5030 nM, 12.7 nM, 46.7 nM, 400 and 3.7.
With `O=C1Cc2c(cccc2N2CCN(CCCCNC(=O)c3ccc4ccccc4c3)CC2)N1`, the Ki on D(2) dopamine receptor (read-out: Ki) is 52 nM; on D(3) dopamine receptor it was 0.5 nM; in data set [1] it was 211 nM. For the same compound, the Ratio Ki in the data set filed under Homo sapiens [2] was 100; in the data set listed under Homo sapiens [3] it was 420.
Consider `CCOC(=O)Nc1cccc(N2CCN(CCCCNC(=O)c3ccc4ccccc4c3)CC2)c1`, for which the inhibitory constant (Ki) on D(2) dopamine receptor (read-out: Ki) is 911 nM; at D(3) dopamine receptor, 3.9 nM; in data set [1] it was 1030 nM. Further, the results for the Ratio Ki in the data set listed under Homo sapiens [2] and in the data set filed under Homo sapiens [3] were 234 and 264, respectively.
